Measurements reported in the supplement of paper PMC3842684.

Legend:
[1] = test system: P. falciparum NF54-pfs16-GFP late (IV-V) stage gametocytes; conditions: stage: late (IV-V) gametocyte; incubation 72 h
Experimental: (§1)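 MMV Malaria Box compounds active in the primary screen were retested in dose-response against P. falciparum NF54-pfs16-GFP early (I-III) or late (IV-V) gametocytes, 72 h, 37 C, viable gametocytes counted by confocal imaging; IC50 from an unconstrained 4-parameter fit. Compounds with no plateau have no IC50 and are left out.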

[2] = test system: P. falciparum NF54-pfs16-GFP early (I-III) stage gametocytes; conditions: stage: early (I-III) gametocyte; incubation 72 h
Experimental: as §1

For CCOC(=O)C1=C(C)N=c2sc(=Cc3ccccc3O)c(=O)n2C1c1ccc(OC)c2ccccc12 (stereo unspecified), the “IC50, viable gametocyte number” value [1] was 1.08 µM.

With CC1=C(CC(=O)c2cccc([N+](=O)[O-])c2)C(=O)c2ccccc2C1=O the “IC50, viable gametocyte number” value [2] was 1.16 µM and the “IC50, viable gametocyte number” value [1] was 0.745 µM.

FC(F)(F)c1cccc(Nc2nc3ccccc3nc2Nc2cccc(C(F)(F)F)c2)c1 was tested, and the “IC50, viable gametocyte number” value [2] was 1.31 µM and the “IC50, viable gametocyte number” value [1] was 0.416 µM.

In the case of O=C1c2ccccc2C2=Nc3ccccc3SC(c3cccc(F)c3)C12 (stereo unspecified), the “IC50, viable gametocyte number” value [1] was 0.733 µM.

In the case of Oc1ccccc1CN1CCN(C(c2ccccc2)c2ccccc2)CC1, the “IC50, viable gametocyte number” value [1] was 1.32 µM.

For CN(C)c1ccc(C=Cc2nc(=O)c3ccccc3o2)cc1, the “IC50, viable gametocyte number” value [1] was 0.936 µM.

CCCCCCc1cc(O)c2c3c(c(=O)oc2c1)CCC(C)C3 (stereo unspecified) was tested, and the “IC50, viable gametocyte number” value [1] was 0.759 µM.

For COc1ccc(Nc2nc(NCc3ccccc3)c3ccccc3n2)cc1, the “IC50, viable gametocyte number” value [2] was 1.48 µM.

In the case of Nc1ccc(-c2nc3cc(Cc4ccc5[nH]c(-c6ccc(N)cc6)nc5c4)ccc3[nH]2)cc1, the “IC50, viable gametocyte number” value [1] was 1.1 µM.

In the case of COc1ccc(-c2nc3cc(Cc4ccc5[nH]c(-c6ccc(OC)cc6)nc5c4)ccc3[nH]2)cc1, the “IC50, viable gametocyte number” value [2] was 0.949 µM and the “IC50, viable gametocyte number” value [1] was 1.11 µM.

In the case of CC(C)(C)c1ccc(O)c(CNC2CCCCC2)c1, the “IC50, viable gametocyte number” value [2] was 0.712 µM and the “IC50, viable gametocyte number” value [1] was 0.382 µM.

For O=c1cc(NC2CCN(CCCc3ccccc3)CC2)c2cc(Cl)ccc2o1, the “IC50, viable gametocyte number” value [2] was 1.31 µM.

In the case of CC(C)CCNCC(O)Cn1c2ccccc2c2ccccc21 (stereo unspecified), the “IC50, viable gametocyte number” value [1] was 1.17 µM.

In the case of Cn1c(=O)n(C)c2cc(CNCCNc3ccnc4cc(Cl)ccc34)ccc21, the “IC50, viable gametocyte number” value [2] was 0.588 µM.

In the case of COc1ccc(C(C)=O)cc1N1C(=O)C2C(C1=O)C1(c3ccccc3)C(=O)C2(c2ccccc2)C(c2ccc(C)cc2)=C1c1ccc(C)cc1 (stereo unspecified), the “IC50, viable gametocyte number” value [1] was 0.827 µM.

In the case of COc1ccc(C(=O)NC(c2ccc(Cl)cc2Cl)c2cc(Cl)c3cccnc3c2O)cc1 (stereo unspecified), the “IC50, viable gametocyte number” value [1] was 1.07 µM.

With Cc1cc(Nc2ccc(OCc3ccccc3)cc2)nc2cc(O)ccc12 the “IC50, viable gametocyte number” value [1] was 0.784 µM.

With CCCc1cc(O)c2c3c(c(=O)oc2c1)CN(C)CC3 the “IC50, viable gametocyte number” value [1] was 0.591 µM.

CCOC(=O)c1cn(CC)c2cc(N(C)CCc3ccc(OC)c(OC)c3)c(F)cc2c1=O was tested, and the “IC50, viable gametocyte number” value [1] was 0.574 µM.

With OC1=C2C(=Nc3ccccc3SC2c2ccc(Br)cc2)c2ccccc21 (stereo unspecified) the “IC50, viable gametocyte number” value [1] was 0.875 µM.

In the case of COc1ccc(C2NCCc3c2[nH]c2ccccc32)cc1CN1CCN(c2ccc(F)cc2)CC1 (stereo unspecified), the “IC50, viable gametocyte number” value [1] was 1.17 µM.

In the case of CN1CCN(c2ccc(Nc3c4ccccc4nc4ccccc34)cc2)CC1, the “IC50, viable gametocyte number” value [2] was 1.11 µM and the “IC50, viable gametocyte number” value [1] was 1.36 µM.

With CCOC(=O)C1=C(C)N=c2sc(=Cc3cc(Cl)ccc3O)c(=O)n2C1c1ccc(OC)cc1 (stereo unspecified) the “IC50, viable gametocyte number” value [2] was 0.359 µM and the “IC50, viable gametocyte number” value [1] was 0.228 µM.

For CCCCCCc1cc2cc(-c3nc4ccccc4[nH]3)c(=Nc3ccccc3C)oc2cc1O, the “IC50, viable gametocyte number” value [2] was 0.819 µM and the “IC50, viable gametocyte number” value [1] was 0.465 µM.

For CCOc1ccccc1CN1CCc2nc3cc(C(C)(C)C)nn3c(O)c2C1, the “IC50, viable gametocyte number” value [1] was 1.59 µM.

In the case of CCOC(=O)c1cn(CC)c2cc(N3CCCCC3)c(F)cc2c1=O, the “IC50, viable gametocyte number” value [1] was 0.337 µM.

With CCCOCc1cc(CN2CCN(c3cccc(Cl)c3)CC2)c(O)c2ncccc12 the “IC50, viable gametocyte number” value [1] was 0.584 µM.

CCN(CC)CCNc1ccnc2cc3ccccc3cc12 was tested, and the “IC50, viable gametocyte number” value [2] was 1.71 µM.

Oc1ccc(-c2nc(-c3ccc4oc5ccc(-c6[nH]c(-c7ccc(O)cc7)nc6-c6ccccc6)cc5c4c3)c(-c3ccccc3)[nH]2)cc1 was tested, and the “IC50, viable gametocyte number” value [2] was 0.699 µM.

OC(CNC1CCCCC1)Cn1c2ccc(I)cc2c2cc(I)ccc21 (stereo unspecified) was tested, and the “IC50, viable gametocyte number” value [2] was 0.252 µM and the “IC50, viable gametocyte number” value [1] was 0.063 µM.

In the case of CC1CCCCN1CCCNC(=O)c1ccc2c(c1)sc1nc(-c3ccc(F)cc3)cn12 (stereo unspecified), the “IC50, viable gametocyte number” value [2] was 1.79 µM.

CCN(CC)CCn1c(=N)n(CC(O)c2ccc(Cl)c(Cl)c2)c2ccccc21 (stereo unspecified) was tested, and the “IC50, viable gametocyte number” value [2] was 1.44 µM and the “IC50, viable gametocyte number” value [1] was 1.09 µM.

For Clc1cc(Br)ccc1-c1ccc(CNCC2CCNCC2)o1, the “IC50, viable gametocyte number” value [2] was 0.824 µM and the “IC50, viable gametocyte number” value [1] was 0.692 µM.

For COc1ccc(C2=C(c3ccc(OC)cc3)C3(c4ccccc4)C(=O)C2(c2ccccc2)C2C(=O)N(c4ccc(C)cc4)C(=O)C23)cc1 (stereo unspecified), the “IC50, viable gametocyte number” value [1] was 0.333 µM.

For COc1ccc(NC(=O)C2c3ccccc3C(=O)N(CC(C)C)C2c2cccs2)cc1Cl (stereo unspecified), the “IC50, viable gametocyte number” value [1] was 0.596 µM.

For COc1ccc(C=C2SC(Nc3ccc(F)cc3)=NC2=O)c(OC)c1, the “IC50, viable gametocyte number” value [1] was 0.892 µM.

OCCNc1nc(Nc2ccc(Cl)c(Cl)c2)nc2ccccc12 was tested, and the “IC50, viable gametocyte number” value [1] was 1.35 µM.

For Oc1ccccc1CN1CCC2(CCCN(Cc3ccccc3F)C2)C1 (stereo unspecified), the “IC50, viable gametocyte number” value [2] was 1.36 µM and the “IC50, viable gametocyte number” value [1] was 0.673 µM.

With Cc1ccc(Nc2nc(-c3ccccn3)cs2)cc1 the “IC50, viable gametocyte number” value [2] was 0.461 µM and the “IC50, viable gametocyte number” value [1] was 0.231 µM.

With c1ccc(Cn2c(N=Nc3c(Nc4ccccc4)ccc4ccccc34)nc3ccccc32)cc1 the “IC50, viable gametocyte number” value [1] was 0.183 µM.

In the case of Cc1ccc(-c2cc3c(nn2)-c2ccccc2C3=O)cc1, the “IC50, viable gametocyte number” value [1] was 0.603 µM.

In the case of Cc1cccc(-n2ncc3c(=O)[nH]c(-n4nc(C)cc4NC(=O)c4cc5ccccc5o4)nc32)c1, the “IC50, viable gametocyte number” value [1] was 1.09 µM.

With CCCCCCc1cc2cc(-c3csc(C=Cc4ccccc4)n3)c(=O)oc2cc1O the “IC50, viable gametocyte number” value [2] was 0.83 µM and the “IC50, viable gametocyte number” value [1] was 0.594 µM.

With OC(CNC1CCCCC1)Cn1c2ccccc2c2ccccc21 (stereo unspecified) the “IC50, viable gametocyte number” value [1] was 0.897 µM.

For C=CC12CCN(CC1)C(C(O)c1ccnc3ccc(OC)cc13)C2 (stereo unspecified), the “IC50, viable gametocyte number” value [2] was 0.823 µM and the “IC50, viable gametocyte number” value [1] was 0.276 µM.

In the case of CSC1=NC(=Nc2c(C)cccc2C)C2(CCC(C(C)(C)C)CC2)N1c1ccc(Cl)cc1 (stereo unspecified), the “IC50, viable gametocyte number” value [1] was 0.592 µM.

For CCCCCCn1c(=N)n(CC(O)COc2cccc(C)c2)c2ccccc21 (stereo unspecified), the “IC50, viable gametocyte number” value [1] was 1.61 µM.

For COc1ccc(-c2nc(N3CCN(C(=O)C4CCCCC4)CC3)c3c4c(sc3n2)CCCC4)cc1, the “IC50, viable gametocyte number” value [1] was 1.29 µM.

COc1ccc2c(=O)cc(C(Cl)(Cl)Cl)oc2c1 was tested, and the “IC50, viable gametocyte number” value [2] was 1.21 µM.

In the case of Cc1ccc(N2C3c4ccccc4N(S(=O)(=O)c4ccc(C)cc4)C2c2ccccc2N3S(=O)(=O)c2ccc(C)cc2)cc1, the “IC50, viable gametocyte number” value [2] was 1.19 µM and the “IC50, viable gametocyte number” value [1] was 0.208 µM.

In the case of CN(C)CCCNc1c2ccccc2nc2ccccc12, the “IC50, viable gametocyte number” value [2] was 1.44 µM and the “IC50, viable gametocyte number” value [1] was 0.703 µM.

For COc1cccc(C=Cc2nc(=O)c3ccccc3o2)c1OC, the “IC50, viable gametocyte number” value [1] was 0.438 µM.

With CCOC(=O)c1cnc2ccc(CC)cc2c1O the “IC50, viable gametocyte number” value [1] was 0.253 µM.

With COc1ccc(C(=O)C(CCC(CNC(C)(C)C)C(=O)c2ccc(OC)cc2)CNC(C)(C)C)cc1 (stereo unspecified) the “IC50, viable gametocyte number” value [1] was 1.09 µM.

With CCOC(=O)c1c(NC(=O)c2ccccc2)sc2c(O)c(CN(CC)CC)ccc12 the “IC50, viable gametocyte number” value [2] was 0.81 µM and the “IC50, viable gametocyte number” value [1] was 0.371 µM.

CCN(CC)CCNc1ccnc2cc(Cl)ccc12 was tested, and the “IC50, viable gametocyte number” value [2] was 1.02 µM.

Brc1ccc(Nc2nc3ccccc3nc2Nc2ccc(Br)cc2)cc1 was tested, and the “IC50, viable gametocyte number” value [1] was 0.948 µM.

For COc1ccc(C2c3ccc4ccccc4c3Oc3ncn(CCCN(C)C)c(=N)c32)cc1 (stereo unspecified), the “IC50, viable gametocyte number” value [1] was 1.06 µM.

In the case of CCc1ccc(Nc2cc(C)c3ccc(O)cc3n2)cc1, the “IC50, viable gametocyte number” value [1] was 1.27 µM.

With CC(C)(C)c1ccc2c(c1)CN(Cc1ccc(Cl)cc1)CO2 the “IC50, viable gametocyte number” value [1] was 0.92 µM.

With CSc1ccccc1C(=O)Nc1nc(-c2ccccn2)cs1 the “IC50, viable gametocyte number” value [1] was 0.781 µM.

With CC1CC2=C(CC1CNCCCN(C)C)C(C)(C)CCC2 (stereo unspecified) the “IC50, viable gametocyte number” value [1] was 0.541 µM.

Oc1ccccc1CNCC12CC3CC(CC(C3)C1)C2 was tested, and the “IC50, viable gametocyte number” value [2] was 0.891 µM and the “IC50, viable gametocyte number” value [1] was 0.415 µM.

CN(C)c1ccc(C(O)(c2ccc(N(C)C)cc2)c2ccc(N(C)C)cc2)cc1 was tested, and the “IC50, viable gametocyte number” value [2] was 0.769 µM and the “IC50, viable gametocyte number” value [1] was 0.315 µM.

With CNCCCNc1ccnc2cc(Cl)ccc12 the “IC50, viable gametocyte number” value [2] was 0.274 µM and the “IC50, viable gametocyte number” value [1] was 0.31 µM.

COC(=O)c1ccc(C2C3=C(O)CC(c4ccc(F)cc4)CC3=Nc3ccccc3N2C(=O)c2ccccc2)cc1 (stereo unspecified) was tested, and the “IC50, viable gametocyte number” value [1] was 1.13 µM.

With COc1cc2c(cc1OC)C1=NNC(=O)C1=NC(C)(C)C2 the “IC50, viable gametocyte number” value [1] was 1.04 µM.

COc1cccc(O)c1CN1CCC2(CCCN(Cc3ccc(F)cc3)C2)C1 (stereo unspecified) was tested, and the “IC50, viable gametocyte number” value [1] was 0.899 µM.

Cc1sc2ncnc(Sc3nc4ccccc4[nH]3)c2c1C was tested, and the “IC50, viable gametocyte number” value [2] was 1.14 µM and the “IC50, viable gametocyte number” value [1] was 0.324 µM.

With Cc1ccc2c(C)nc(Nc3nc(C)cc(-c4ccccc4)n3)nc2c1 the “IC50, viable gametocyte number” value [1] was 0.673 µM.
